Source: the supplement of paper PMC10307832

Tests used:
Experiment in all cases: relative viability (nuclei count vs DMSO), 5 days (fraction); higher = more cells survive
LU99A = system: LU99A
Summary of the method: (§1)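 Relative viability was taken as the ratio of nuclei in treated wells to nuclei in vehicle wells. Lung cancer cell lines in 1536-well plates received compounds by pin tool one day after seeding, either one drug alone or a fixed anchor-drug dose plus five library-drug doses (not always all listed) in √10 steps. Nuclei were counted on 4× images after 5 days of treatment, and values are medians of duplicate plates.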

NCI-H358 = system: NCI-H358
Summary of the method: as §1

COR-L 105 = system: COR-L 105
Summary of the method: as §1

NCI-H460 = system: NCI-H460
Summary of the method: as §1

LXF-289 = system: LXF-289
Summary of the method: as §1

NCI-H2342 = system: NCI-H2342
Summary of the method: as §1

LCLC-97TM1 = system: LCLC-97TM1
Summary of the method: as §1

LC-2-ad = system: LC-2-ad
Summary of the method: as §1

HCC-78 = system: HCC-78
Summary of the method: as §1

SK-LU-1 = system: SK-LU-1
Summary of the method: as §1

A-427 = system: A-427
Summary of the method: as §1

SW 900 = system: SW 900
Summary of the method: as §1

NCI-H1755 = system: NCI-H1755
Summary of the method: as §1

EPLC-272H = system: EPLC-272H
Summary of the method: as §1

UMC-11 = system: UMC-11
Summary of the method: as §1

HCC-366 = system: HCC-366
Summary of the method: as §1

NCI-H1944 = system: NCI-H1944
Summary of the method: as §1

HOP-62 = system: HOP-62
Summary of the method: as §1

NCI-H1915 = system: NCI-H1915
Summary of the method: as §1

NCI-H1975 = system: NCI-H1975
Summary of the method: as §1

NCI-H2085 = system: NCI-H2085
Summary of the method: as §1

NCI-H2170 = system: NCI-H2170
Summary of the method: as §1

NCI-H1793 = system: NCI-H1793
Summary of the method: as §1

C[C@@H]1CN(CC(=O)Nc2ccc3c(c2)Cc2cccc(-c4cc(=O)cc(N5CCOCC5)o4)c2S3)C[C@H](C)O1 + Cc1cc(Nc2cc(N3CCN(C)CC3)nc(Sc3ccc(NC(=O)C4CC4)cc3)n2)n[nH]1 [Tozasertib] (partner 0.1 µM) showed a relative viability (LU99A; first compound 0.04 µM) of 0.243, a relative viability (LU99A; first compound 0.1265 µM) of 0.257 and a relative viability (LU99A; first compound 0.4 µM) of 0.246. The relative viability (LU99A; first compound 4 µM) was 0.251, the relative viability (NCI-H358; first compound 0.04 µM) was 0.13 and the relative viability (NCI-H358; first compound 0.1265 µM) was 0.0927. It also gave a relative viability (NCI-H358; first compound 0.4 µM) of 0.0941, a relative viability (NCI-H358; first compound 4 µM) of 0.114 and a relative viability (COR-L 105; first compound 0.04 µM) of 0.321. For the same compound, the relative viability (COR-L 105; first compound 0.1265 µM) was 0.332, the relative viability (COR-L 105; first compound 0.4 µM) was 0.352 and the relative viability (COR-L 105; first compound 4 µM) was 0.296. The relative viability (NCI-H460; first compound 0.04 µM) was 0.393, the relative viability (NCI-H460; first compound 0.1265 µM) was 0.397 and the relative viability (NCI-H460; first compound 0.4 µM) was 0.485. It also gave a relative viability (NCI-H460; first compound 4 µM) of 0.0949, a relative viability (LXF-289; first compound 0.04 µM) of 0.193 and a relative viability (LXF-289; first compound 0.1265 µM) of 0.212. For the same compound, the relative viability (LXF-289; first compound 0.4 µM) was 0.246, the relative viability (LXF-289; first compound 4 µM) was 0.191 and the relative viability (NCI-H2342; first compound 0.04 µM) was 0.477. The relative viability (NCI-H2342; first compound 0.1265 µM) was 0.494, the relative viability (NCI-H2342; first compound 0.4 µM) was 0.559 and the relative viability (NCI-H2342; first compound 4 µM) was 0.384. It also gave a relative viability (LCLC-97TM1; first compound 0.04 µM) of 0.27, a relative viability (LCLC-97TM1; first compound 0.1265 µM) of 0.226 and a relative viability (LCLC-97TM1; first compound 0.4 µM) of 0.214. For the same compound, the relative viability (LCLC-97TM1; first compound 4 µM) was 0.207, the relative viability (LC-2-ad; first compound 0.04 µM) was 0.373 and the relative viability (LC-2-ad; first compound 0.1265 µM) was 0.454. For the same compound, the relative viability (LC-2-ad; first compound 0.4 µM) was 0.467, the relative viability (LC-2-ad; first compound 4 µM) was 0.44 and the relative viability (HCC-78; first compound 0.04 µM) was 0.397. It also gave a relative viability (HCC-78; first compound 0.1265 µM) of 0.386, a relative viability (HCC-78; first compound 0.4 µM) of 0.361 and a relative viability (HCC-78; first compound 4 µM) of 0.318. The relative viability (SK-LU-1; first compound 0.04 µM) was 0.334, the relative viability (SK-LU-1; first compound 0.1265 µM) was 0.326 and the relative viability (SK-LU-1; first compound 0.4 µM) was 0.323. For the same compound, the relative viability (SK-LU-1; first compound 4 µM) was 0.217, the relative viability (A-427; first compound 0.04 µM) was 0.176 and the relative viability (A-427; first compound 0.1265 µM) was 0.214. The relative viability (A-427; first compound 0.4 µM) was 0.214, the relative viability (A-427; first compound 4 µM) was 0.205 and the relative viability (SW 900; first compound 0.04 µM) was 0.463. The relative viability (SW 900; first compound 0.1265 µM) was 0.579, the relative viability (SW 900; first compound 0.4 µM) was 0.476 and the relative viability (SW 900; first compound 4 µM) was 0.335. The relative viability (NCI-H1755; first compound 0.04 µM) was 0.603, the relative viability (NCI-H1755; first compound 0.1265 µM) was 0.582 and the relative viability (NCI-H1755; first compound 0.4 µM) was 0.595. For the same compound, the relative viability (NCI-H1755; first compound 4 µM) was 0.466, the relative viability (EPLC-272H; first compound 0.04 µM) was 0.189 and the relative viability (EPLC-272H; first compound 0.1265 µM) was 0.237. The relative viability (EPLC-272H; first compound 0.4 µM) was 0.256, the relative viability (EPLC-272H; first compound 4 µM) was 0.243 and the relative viability (UMC-11; first compound 0.04 µM) was 0.208. For the same compound, the relative viability (UMC-11; first compound 0.1265 µM) was 0.198, the relative viability (UMC-11; first compound 0.4 µM) was 0.19 and the relative viability (UMC-11; first compound 4 µM) was 0.199. For the same compound, the relative viability (HCC-366; first compound 0.04 µM) was 0.165, the relative viability (HCC-366; first compound 0.1265 µM) was 0.132 and the relative viability (HCC-366; first compound 0.4 µM) was 0.0609. The relative viability (HCC-366; first compound 4 µM) was 0.0509, the relative viability (NCI-H1944; first compound 0.04 µM) was 0.273 and the relative viability (NCI-H1944; first compound 0.1265 µM) was 0.255. For the same compound, the relative viability (NCI-H1944; first compound 0.4 µM) was 0.263, the relative viability (NCI-H1944; first compound 4 µM) was 0.23 and the relative viability (HOP-62; first compound 0.04 µM) was 0.378. For the same compound, the relative viability (HOP-62; first compound 0.1265 µM) was 0.365, the relative viability (HOP-62; first compound 0.4 µM) was 0.35 and the relative viability (HOP-62; first compound 4 µM) was 0.346. It also gave a relative viability (NCI-H1915; first compound 0.04 µM) of 0.364, a relative viability (NCI-H1915; first compound 0.1265 µM) of 0.422 and a relative viability (NCI-H1915; first compound 0.4 µM) of 0.399. For the same compound, the relative viability (NCI-H1915; first compound 4 µM) was 0.314, the relative viability (NCI-H1975; first compound 0.04 µM) was 0.781 and the relative viability (NCI-H1975; first compound 0.1265 µM) was 0.675. It also gave a relative viability (NCI-H1975; first compound 0.4 µM) of 0.611, a relative viability (NCI-H1975; first compound 4 µM) of 0.193 and a relative viability (NCI-H2085; first compound 0.04 µM) of 0.85. The relative viability (NCI-H2085; first compound 0.1265 µM) was 0.827, the relative viability (NCI-H2085; first compound 0.4 µM) was 0.739 and the relative viability (NCI-H2085; first compound 4 µM) was 0.551. For the same compound, the relative viability (NCI-H2170; first compound 0.04 µM) was 0.708, the relative viability (NCI-H2170; first compound 0.1265 µM) was 0.764 and the relative viability (NCI-H2170; first compound 0.4 µM) was 0.719. It also gave a relative viability (NCI-H2170; first compound 4 µM) of 0.614, a relative viability (NCI-H1793; first compound 0.04 µM) of 0.279 and a relative viability (NCI-H1793; first compound 0.1265 µM) of 0.313. It also gave a relative viability (NCI-H1793; first compound 0.4 µM) of 0.306 and a relative viability (NCI-H1793; first compound 4 µM) of 0.17.
